Results from US6358885B1, “Substituted phenylheterocyclic herbicides” (Mississippi State University, priority 1992, dated 2002).

Tests used:
[1] = test system: wild buckwheat; test: Test B preemergence/postemergence greenhouse plant response rating 0 to 10; format: in vivo, Polygonum convolvulus; conditions: 0 to 10 scale
In short: (§1)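 Test chemicals, dissolved in a non-phytotoxic solvent, were applied to soil at planting and, at the same time, over foliage of seedlings at the one to four leaf stage.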

[2] = test system: wild oat; test: as above; format: in vivo, Avena fatua; conditions: 0 to 10 scale
In short: as §1

[3] = test system: crabgrass; test: as above; format: in vivo, Digitaria spp.; conditions: 0 to 10 scale
In short: as §1

[4] = test system: lambsquarters; test: as above; format: in vivo, Chenopodium album; conditions: 0 to 10 scale
In short: as §1

[5] = test system: purple nutsedge; test: as above; format: in vivo, Cyperus rotundus; conditions: 0 to 10 scale
In short: as §1

[6] = test system: cocklebur; test: as above; format: in vivo, Xanthium pensylvanicum; conditions: 0 to 10 scale
In short: as §1

[7] = test system: chickweed; test: Test C preemergence/postemergence greenhouse plant response rating 0 to 100; format: in vivo, Stellaria media; conditions: POSTEMERGENCE; for Plant response rating, Chickweed: 0 to 100 scale
In short: (§2)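 Compounds in non-phytotoxic solvent went onto sandy loam before emergence (seeded one day earlier) or onto plants at the one-to-four leaf stage. Duck salad was treated via flood water (~2.5 cm, maintained) over silt loam.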

[8] = test system: giant foxtail; test: Test B preemergence/postemergence greenhouse plant response rating 0 to 10; format: in vivo, Setaria faberii; conditions: 0 to 10 scale
In short: as §1

[9] = test system: downy brome; test: Test C preemergence/postemergence greenhouse plant response rating 0 to 100; format: in vivo, Bromus tectorum; conditions: POSTEMERGENCE; for Plant response rating Downy Brome: 0 to 100 scale
In short: as §2

[10] = test system: barnyardgrass; test: Test C flood test plant response rating 0 to 100; format: in vivo, Echinochloa crus-galli; conditions: for Plant response rating, Barnyardgrass: flood test species listed under POSTEMERGENCE, 0 to 100 scale
In short: (§3)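 Compounds in non-phytotoxic solvent applied preemergence to sandy loam one day after planting, postemergence at the 1–4 leaf stage, or to ~2.5 cm floodwater over silt loam.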

[11] = test system: rape; test: Test C preemergence/postemergence greenhouse plant response rating 0 to 100; format: in vivo, Brassica napus; conditions: POSTEMERGENCE; for Plant response rating, Rape: 0 to 100 scale
In short: as §2

[12] = test system: barnyardgrass; test: Test B preemergence/postemergence greenhouse plant response rating 0 to 10; format: in vivo, Echinochloa crus-galli; conditions: 0 to 10 scale
In short: as §1

[13] = test system: wild oat; test: Test C preemergence/postemergence greenhouse plant response rating 0 to 100; format: in vivo, Avena fatua; conditions: POSTEMERGENCE; for Plant response rating, Wild oat: 0 to 100 scale
In short: as §2

[14] = test system: rice; test: Test C flood test plant response rating 0 to 100; format: in vivo, Oryza sativa; conditions: for Plant response rating Rice Japonica: flood test species listed under POSTEMERGENCE, 0 to 100 scale
In short: as §3

[15] = test system: cotton; test: Test C preemergence/postemergence greenhouse plant response rating 0 to 100; format: in vivo, Gossypium hirsutum; conditions: POSTEMERGENCE; for Plant response rating, Cotton: 0 to 100 scale
In short: as §2

[16] = test system: giant foxtail; test: as above; format: in vivo, Setaria faberii; conditions: POSTEMERGENCE; for Plant response rating, Giant foxtail: 0 to 100 scale
In short: as §2

[17] = test system: soybean; test: as above; format: in vivo, Glycine max; conditions: POSTEMERGENCE; for Plant response rating, Soybean: 0 to 100 scale
In short: as §2

[18] = test system: umbrella sedge; test: Test C flood test plant response rating 0 to 100; format: in vivo, Cyperus difformis; conditions: for Plant response rating Umbrella sedge: flood test species listed under POSTEMERGENCE, 0 to 100 scale
In short: as §3

[19] = POSTEMERGENCE section, flood test, Rate 4 g/ha
[20] = Rate 16 g/ha, under POSTEMERGENCE head (flood test species)

COC(=O)c1cc(-c2nn3c(c2Cl)CCCC3)c(F)cc1Cl [Compound 43]
Plant response rating, Wild buckwheat ([1]; POSTEMERGENCE, Rate 50 g/ha): 10
Plant response rating, Wild buckwheat ([1]; PREEMERGENCE, Rate 50 g/ha): 8
Plant response rating, Wild buckwheat ([1]; Rate 200 g/ha, POSTEMERGENCE): 10
Plant response rating, Wild buckwheat ([1]; Rate 200 g/ha, PREEMERGENCE): 10
Plant response rating, Wild oat ([2]; POSTEMERGENCE, Rate 50 g/ha): 5
Plant response rating, Wild oat ([2]; PREEMERGENCE, Rate 50 g/ha): 2
Plant response rating, Wild oat ([2]; Rate 200 g/ha, POSTEMERGENCE): 7
Plant response rating, Crabgrass ([3]; POSTEMERGENCE, Rate 50 g/ha): 4
Plant response rating, Crabgrass ([3]; PREEMERGENCE, Rate 50 g/ha): 0
Plant response rating, Crabgrass ([3]; Rate 200 g/ha, PREEMERGENCE): 0
Plant response rating, Lambsquarter ([4]; POSTEMERGENCE, Rate 50 g/ha): 8
Plant response rating, Lambsquarter ([4]; PREEMERGENCE, Rate 50 g/ha): 9
Plant response rating, Lambsquarter ([4]; Rate 200 g/ha, POSTEMERGENCE): 10
Plant response rating, Lambsquarter ([4]; Rate 200 g/ha, PREEMERGENCE): 10
Plant response rating, Nutsedge ([5]; POSTEMERGENCE, Rate 50 g/ha): 3
Plant response rating, Nutsedge ([5]; PREEMERGENCE, Rate 50 g/ha): 0
Plant response rating, Nutsedge ([5]; Rate 200 g/ha, POSTEMERGENCE): 3
Plant response rating, Nutsedge ([5]; Rate 200 g/ha, PREEMERGENCE): 0
Plant response rating, Cocklebur ([6]; POSTEMERGENCE, Rate 50 g/ha): 8
Plant response rating, Cocklebur ([6]; POSTEMERGENCE, Rate 200 g/ha): 10
Plant response rating, Cocklebur ([6]; PREEMERGENCE, Rate 50 g/ha): 0
Plant response rating, Cocklebur ([6]; Rate 200 g/ha, PREEMERGENCE): 0
Plant response rating, Chickweed ([7]; 62 g/ha): 90
Plant response rating, Chickweed ([7]; 250 g/ha): 100
Plant response rating (0 to 100), Chickweed ([7]; Rate 4 g/ha): 60
Plant response rating (0 to 100), Chickweed ([7]; Rate 16 g/ha): 80
Plant response rating, Giant foxtail ([8]; POSTEMERGENCE, Rate 50 g/ha): 5
Plant response rating, Giant foxtail ([8]; PREEMERGENCE, Rate 50 g/ha): 0
Plant response rating, Giant foxtail ([8]; Rate 200 g/ha, POSTEMERGENCE): 6
Plant response rating, Giant foxtail ([8]; Rate 200 g/ha, PREEMERGENCE): 0
Plant response rating Downy Brome ([9]; 62 g/ha): 50
Plant response rating Downy Brome ([9]; 250 g/ha): 80
Plant response rating (0 to 100), Downy Brome ([9]; Rate 4 g/ha): 30
Plant response rating (0 to 100), Downy Brome ([9]; Rate 16 g/ha): 40
Plant response rating (0 to 100), Barnyardgrass [10, 19]: 45
Plant response rating (0 to 100), Barnyardgrass [10, 20]: 95
Plant response rating, Barnyardgrass ([10]; 62 g/ha): 100
Plant response rating, Barnyardgrass ([10]; 250 g/ha): 100
Plant response rating, Rape ([11]; 62 g/ha): 100
Plant response rating, Rape ([11]; 250 g/ha): 100
Plant response rating (0 to 100), Rape ([11]; Rate 4 g/ha): 80
Plant response rating (0 to 100), Rape ([11]; Rate 16 g/ha): 100
Plant response rating, Barnyardgrass ([12]; POSTEMERGENCE, Rate 50 g/ha): 7
Plant response rating, Barnyardgrass ([12]; POSTEMERGENCE, Rate 200 g/ha): 9
Plant response rating, Barnyardgrass ([12]; PREEMERGENCE, Rate 50 g/ha): 0
Plant response rating, Barnyardgrass ([12]; Rate 200 g/ha, PREEMERGENCE): 2
Plant response rating, Wild oat ([13]; 62 g/ha): 50
Plant response rating, Wild oat ([13]; 250 g/ha): 60
Plant response rating (0 to 100), Wild oat ([13]; Rate 4 g/ha): 20
Plant response rating (0 to 100), Wild oat ([13]; Rate 16 g/ha): 40
Plant response rating (0 to 100), Rice Japonica [14, 19]: 35
Plant response rating (0 to 100), Rice Japonica [14, 20]: 60
Plant response rating Rice Japonica ([14]; 62 g/ha): 70
Plant response rating Rice Japonica ([14]; 250 g/ha): 75
Plant response rating, Cotton ([15]; 62 g/ha): 100
Plant response rating, Cotton ([15]; 250 g/ha): 100
Plant response rating (0 to 100), Cotton ([15]; Rate 4 g/ha): 90
Plant response rating (0 to 100), Cotton ([15]; Rate 16 g/ha): 90
Plant response rating, Giant foxtail ([16]; 62 g/ha): 50
Plant response rating, Giant foxtail ([16]; 250 g/ha): 85
Plant response rating (0 to 100), Giant foxtail ([16]; Rate 4 g/ha): 40
Plant response rating (0 to 100), Giant foxtail ([16]; Rate 16 g/ha): 50
Plant response rating, Soybean ([17]; 62 g/ha): 70
Plant response rating, Soybean ([17]; 250 g/ha): 90
Plant response rating (0 to 100), Soybean ([17]; Rate 4 g/ha): 40
Plant response rating (0 to 100), Soybean ([17]; Rate 16 g/ha): 50
Plant response rating (0 to 100), Umbrella sedge [18, 19]: 0
Plant response rating (0 to 100), Umbrella sedge [18, 20]: 0
Plant response rating Umbrella sedge ([18]; 62 g/ha): 60
Plant response rating Umbrella sedge ([18]; 250 g/ha): 70
